One may read the IC50 as the midpoint of a concentration-inhibition curve. In general, half-life refers to the time needed for the level to fall by half in the phase considered. For orientation: solubility means the dissolved amount per volume that the medium holds.

In brackets after ≈: the same amount, converted by molar mass. Entries after “also recorded” stand apart in the source; their conditions may differ. Read-outs that look alike come from different tables or passages of the source.

The test system of one data set is GAS strain UMAA2616. Briefly: microbe, parasite or virus in culture. The class given is cell-based, Streptococcus pyogenes (Group A Streptococcus). Conditions: Streptococcus pyogenes, UMAA2616, read-out: 50 μM Growth T/C.
Data set [1] deals with streptokinase (SK) expression in GAS strain UMAA2616. As to the kind of experiment: microbe, parasite or virus in culture. The class given is cell-based, Streptococcus pyogenes (Group A Streptococcus). The settings on record: for IC50: read-out: IC50 (SK activity).
The test system of a further data set is HeLa cells. As to the kind of experiment: Mammalian cytotoxicity assay. The format is cell-based. Conditions: up to 100 μM, the highest concentration tested; 24 hours.
The nature of data set [2]: Microsomal stability assay. The settings on record: for MLM t1/2: half-life of parent compound during incubation with mouse liver microsomes, 1 μM, 0.5 mg/mL, NADPH; for half-life at 1 μM: mouse, microsomes. A general note: Microsomes from liver hold many membrane-bound enzymes, among them those of drug oxidation.
The next data set can be described thus: Aqueous. The settings on record: for Aq. Sol.: kinetic solubility in aqueous Todd Hewitt (THY) bacterial media, 37°C.
Data set [3] relates to S. aureus biofilm formation. As to the kind of experiment: Biofilm formation, plate-based OD assay. The format is cell-based, Staphylococcus aureus. Conditions: reported in greater detail in ref 28.
In another data set the test system is GAS infection. The settings on record: transgenic mouse model of GAS infection; cited from earlier work.
The mark [4] stands for this setting: full dose-response titration, approximate IC50.

In the case of `C=CCn1c(NCC)nc2c(c1=O)C(C)(C)Cc1ccccc1-2` [13b, 3-allyl-2-(ethylamino)-5,5-dimethyl-5,6-dihydrobenzo[h]quinazolin-4(3H)-one], the activity at 50 µM with GAS strain UMAA2616 was found to be 6 ± 3%.
Same read-out and setting: next, `C=CCn1c(SCC(=O)OCC)nc2c(c1=O)C(C)(C)Cc1ccccc1-2` [compound 31]: 101 ± 2%.
`C=CCn1c(SCc2ccc(NC(C)=O)cc2)nc2c(c1=O)C1(CCCCC1)Cc1ccccc1-2` [6c, N-(4-(((3-allyl-4-oxo-4,6-dihydro-3H-spiro[benzo[h]quinazoline-5,1′-cyclohexan]-2-yl)thio)methyl)phenyl)acetamide]: in the data set on GAS strain UMAA2616, the activity at 50 µM was 96 ± 14%.
In the case of `C=CCn1c(SCc2ccccc2)nc2c(c1=O)C1(CCCCC1)Cc1ccccc1-2` [6b, 3-allyl-2-(benzylthio)-3H-spiro[benzo[h]quinazoline-5,1′-cyclohexan]-4(6H)-one], the IC50 in data set [1] (Streptococcus pyogenes) was more than 50 µM. Moreover, in the data set with GAS strain UMAA2616, the activity at 50 µM came to 96 ± 6%.
For “2-((2-Methoxyethyl)thio)-4-(4-methoxyphenethoxy)-5,5-dimethyl-5,6-dihydrobenzo[h]quinazoline [20a]”, the 50% inhibitory concentration (IC50) in data set [1] (setting [4]) turned out to be 5.5 ± 0.7 µM. Also, the “Inhibition of HeLa cell growth” value in the data set on HeLa cells is listed as not above 35%. In addition, the “MLM t1/2” value in data set [2] was found to be 45.1 min.
In the case of “3-Allyl-2-(ethylthio)-8-isopropoxy-5,5-dimethyl-5,6-dihydrobenzo[h]quinazolin-4(3H)-one [17f]”, in data set [1] (setting [4]), the half-inhibitory concentration (IC50) amounted to 4.1 ± 0.7 µM. The “Aq. Sol.” value in the data set “Aqueous” came out at 14.5 ± 3.5 µM.
As to `C=CCn1c(SCCN(C)C)nc2c(c1=O)C1(CCCCC1)Cc1ccccc1-2` [6e, 3-allyl-2-((2-(dimethylamino)ethyl)thio)-3H-spiro[benzo[h]quinazoline-5,1′-cyclohexan]-4(6H)-one], the activity at 50 µM with GAS strain UMAA2616 turned out to be 88 ± 20%.
For `C=CCn1c(SCC(N)=O)nc2c(c1=O)C(C)(C)Cc1ccccc1-2` [12d, 2-((3-allyl-5,5-dimethyl-4-oxo-3,4,5,6-tetrahydrobenzo[h]quinazolin-2-yl)thio)acetamide], the activity at 50 µM in the data set with GAS strain UMAA2616 was determined as 100 ± 2%.
Take `C=CCn1c(SCCOC)nc2c(c1=O)C(C)(C)Cc1ccccc1-2` [12h, 3-allyl-2-((2-methoxyethyl)thio)-5,5-dimethyl-5,6-dihydrobenzo[h]quinazolin-4(3H)-one]: the activity at 50 µM with GAS strain UMAA2616 amounted to 86 ± 10%. Besides, the “Inhibition of HeLa cell growth” value in the data set on HeLa cells is reported as not above 35%.
Consider “2-(ethylthio)-9-methoxy-5,5-dimethyl-4-(2,2,2-trifluoroethoxy)-5,6-dihydrobenzo[h]quinazoline [20b]”, for which the “MLM t1/2” value in data set [2] was determined as 45.5 min.
On the same count and under the same terms, for “4-(allyloxy)-2-(ethylthio)-9-methoxy-5,5-dimethyl-5,6-dihydrobenzo[h]quinazoline [20c]” the value was 8.3 min.
Turning to “3-allyl-2-(ethylthio)-9-methoxy-5,5-dimethyl-2,3,5,6-tetrahydrobenzo[h]quinazolin-4(1H)-one [12a]”, in data set [1], the “Fold improvement in potency (IC50) over 1” value is on record as “greater than 35 fold” and the “Reduction in streptokinase activity at 5 μM” value is listed as 90%. In addition, the half-maximal inhibitory concentration (IC50) in data set [1] (setting [4]) was determined as 1.3 ± 0.6 µM. In the data set on HeLa cells, the “Inhibition of HeLa cell growth” value is not above 35%. Further, the “MLM t1/2” value in data set [2] was 2.3 min. Moreover, in the data set “Aqueous”, the “Aq. Sol.” value was 9 ± 2 µM.
As to `C=CCn1c(SCCOC)nc2c(c1=O)C1(CCCCC1)Cc1ccccc1-2` [6d, 3-allyl-2-((2-methoxyethyl)thio)-3H-spiro[benzo[h]quinazoline-5,1′-cyclohexan]-4(6H)-one], the activity at 50 µM with GAS strain UMAA2616 worked out at 99 ± 10%.
For “2-(ethylthio)-9-methoxy-5,5-dimethyl-3-(2,2,2-trifluoroethyl)-5,6-dihydrobenzo[h]quinazolin-4(3H)-one [19b]”, in data set [2], the “MLM t1/2” value is reported as 3.0 min.
“3-Allyl-2-(allylthio)-8-methoxy-5,5-dimethyl-5,6-dihydrobenzo[h]quinazolin-4(3H)-one [12k]”: in data set [1] (setting [4]), the IC50 is 6.9 ± 0.3 µM. For the same molecule, the “S. aureus biofilm inhibition” value in data set [3] is recorded as “potent S. aureus biofilm inhibitors”. In addition, the “MLM t1/2” value in data set [2] is 0.6 min. Besides, in “Aqueous”, the “Aq. Sol.” value turned out to be 14.5 ± 3.5 µM.
On to `CCn1c(SCCOC)nc2c(c1=O)C(C)(C)Cc1ccccc1-2` [12i, 3-ethyl-2-((2-methoxyethyl)thio)-5,5-dimethyl-5,6-dihydrobenzo[h]quinazolin-4(3H)-one], for which the activity at 50 µM in the data set on GAS strain UMAA2616 was determined as 39 ± 15%.
Still for that read-out and setting: next, `CCn1c(SCc2ccccc2)nc2c(c1=O)C1(CCCC1)Cc1ccccc1-2` [compound 28]: 107 ± 4%.
Take `C=CCn1c([S+]([O-])CC)nc2c(c1=O)C(C)(C)Cc1ccc(OC)cc1-2` (stereo not drawn) [compound 14, 3-allyl-2-(ethylsulfinyl)-9-methoxy-5,5-dimethyl-5,6-dihydrobenzo[h]quinazolin-4(3H)-one]: the activity at 50 µM in the data set on GAS strain UMAA2616 turned out to be 101 ± 5%. Moreover, in data set [2], the half-life at 1 μM came to 2.8 min.
`COCCSc1nc2c(c(=O)n1CCc1ccc(OC)cc1)C(C)(C)Cc1ccccc1-2` [19a, 2-((2-Methoxyethyl)thio)-3-(4-methoxyphenethyl)-5,5-dimethyl-5,6-dihydrobenzo[h]quin-azolin-4(3H)-one]: the “Inhibition of HeLa cell growth” value in the data set with HeLa cells is not above 35%.
Regarding `C=CCn1c(SCC#N)nc2c(c1=O)C(C)(C)Cc1ccccc1-2` [12g, 2-((3-allyl-5,5-dimethyl-4-oxo-3,4,5,6-tetrahydrobenzo[h]quinazolin-2-yl)thio)acetonitrile], the activity at 50 µM in the data set on GAS strain UMAA2616 turned out to be 100 ± 3%. For the same molecule, in the data set “Aqueous”, the solubility at 5 min was 3 ± 1 µM (≈ 1.01 µg/mL).
For the molecule `C=CCn1c(NCC)nc2c(c1=O)C1(CCCCC1)Cc1ccccc1-2` [7b, 3-allyl-2-(ethylamino)-3H-spiro[benzo[h]quinazoline-5,1′-cyclohexan]-4(6H)-one], in the data set on GAS strain UMAA2616, the activity at 50 µM was found to be 32 ± 18%.
For the molecule `CCSc1nc2c(c(=O)n1C)C(C)(C)Cc1ccc(OC)cc1-2` [12m, 2-(ethylthio)-9-methoxy-3,5,5-trimethyl-5,6-dihydrobenzo[h]quinazolin-4(3H)-one], the activity at 50 µM in the data set with GAS strain UMAA2616 was 83 ± 15%. Besides, the half-life at 1 μM in data set [2] came out at 1.7 min.
Consider `C=CCn1c(SCc2ccccc2)nc2c(c1=O)C(C)(C)Cc1ccccc1-2` [compound 29], for which the activity at 50 µM in the data set on GAS strain UMAA2616 stood at 103 ± 3%. In the data set on HeLa cells, the “Inhibition of HeLa cell growth” value is given as not above 35%.
Consider `C=CCn1c(SCCCC)nc2c(c1=O)C1(CCCCC1)Cc1ccccc1-2` [compound 1, 3-allyl-2-(butylthio)-3H-spiro[benzo[h]quinazoline-5,1′-cyclohexan]-4(6H)-one], for which, in data set [1], the “% of plasmin activity at 50 μM” value was found to be 48 ± 28%. Besides, the IC50 in data set [1] (Streptococcus pyogenes) was more than 50 µM. Moreover, the activity at 50 µM with GAS strain UMAA2616 is 95 ± 8%. Further, the “Inhibition of HeLa cell growth” value in the data set on HeLa cells is on record as not above 35%. Further, the “Efficacy in mouse models of GAS infection” value with GAS infection was “displayed efficacy; also recorded: significant protective effect”. Besides, in data set [2] (1 vs 6b, O-alkylated vs N-alkylated counterparts), the “Fold higher stability to oxidation in MLM (comparison of t1/2)” value was “more than 60 fold”. In the data set “Aqueous”, the concentration in solution (solubility at 5 min) was 2 ± 1 µM (≈ 0.789 µg/mL).
In the case of `C=CCn1c(SCc2ccccn2)nc2c(c1=O)C(C)(C)Cc1ccccc1-2` [12e, 3-allyl-5,5-dimethyl-2-((pyridin-2-ylmethyl)thio)-5,6-dihydrobenzo[h]quinazolin-4(3H)-one], the activity at 50 µM in the data set with GAS strain UMAA2616 is 105 ± 2%.
The same measure, in the same setting: next, `C=CCn1c(SCc2ccc(OC)cc2)nc2c(c1=O)C1(CCCCC1)Cc1ccccc1-2` [6a, 3-allyl-2-((4-methoxybenzyl)thio)-3H-spiro[benzo[h]quinazoline-5,1′-cyclohexan]-4(6H)-one]: 105 ± 6%.
Still for that read-out and setting: for `C=CCn1c(OCC)nc2c(c1=O)C(C)(C)Cc1ccccc1-2` [13a, 3-allyl-2-ethoxy-5,5-dimethyl-5,6-dihydrobenzo[h]quinazolin-4(3H)-one] the value was 50 ± 23%.
Regarding `C=CCn1c(SCC(F)(F)F)nc2c(c1=O)C(C)(C)Cc1ccc(OC)cc1-2` [12l, 3-allyl-9-methoxy-5,5-dimethyl-2-((2,2,2-trifluoroethyl)thio)-5,6-dihydrobenzo[h]quinazolin-4(3H)-one], in the data set with GAS strain UMAA2616, the activity at 50 µM stood at 86 ± 7%. Moreover, the half-life at 1 μM in data set [2] stood at 4.8 min.
On to “3-allyl-2-(ethylthio)-8-methoxy-5,5-dimethyl-5,6-dihydrobenzo[h]quinazolin-4(3H)-one [12c]”, for which, in data set [1] (setting [4]), the half-inhibitory concentration (IC50) turned out to be 3.1 ± 0.7 µM. Further, in the data set with HeLa cells, the “Inhibition of HeLa cell growth” value was not above 35%. In addition, the “S. aureus biofilm inhibition” value in data set [3] is “potent S. aureus biofilm inhibitors”. The “MLM t1/2” value in data set [2] was 0.8 min. In “Aqueous”, the “Aq. Sol.” value was 14.5 ± 3.5 µM.
`C=CCn1c(S(=O)(=O)CC)nc2c(c1=O)C(C)(C)Cc1ccc(OC)cc1-2` [compound 15, 3-allyl-2-(ethylsulfonyl)-9-methoxy-5,5-dimethyl-5,6-dihydrobenzo[h]quinazolin-4(3H)-one]: the activity at 50 µM with GAS strain UMAA2616 turned out to be 103 ± 3%. For the same molecule, the half-life at 1 μM in data set [2] is 3.8 min.
`C=CCn1c(SCC)nc2c(c1=O)C(C)(C)Cc1ccccc1-2` [compound 30]: in the data set with GAS strain UMAA2616, the activity at 50 µM turned out to be 89 ± 5%.
Still for that read-out and setting: next, `C=CCn1c(SC)nc2c(c1=O)C1(CCCCC1)Cc1ccccc1-2` [6f, 3-allyl-2-(methylthio)-3H-spiro[benzo[h]quinazoline-5,1′-cyclohexan]-4(6H)-one]: 98 ± 3%; `C=CCn1c(SCCO)nc2c(c1=O)C(C)(C)Cc1ccccc1-2` [12f, 3-allyl-2-((2-hydroxyethyl)thio)-5,5-dimethyl-5,6-dihydrobenzo[h]quinazolin-4(3H)-one]: 6 ± 3%.
Turning to `C=CCn1c(OCC)nc2c(c1=O)C1(CCCCC1)Cc1ccccc1-2` [7a, 3-allyl-2-ethoxy-3H-spiro[benzo[h]quinazoline-5,1′-cyclohexan]-4(6H)-one], the activity at 50 µM in the data set on GAS strain UMAA2616 was determined as 102 ± 9%.

The record behind these values is paper PMC3605901 (Bioorganic & medicinal chemistry, 2013).
